Test results taken from PubChem BioAssay AID2060363 (Molecular Pharmacology Branch, DTP, NCI, 2025).

Tested on: 156681-154-R-J1-PDC tumor spheroids, viability % test/control
Test: Anticancer human tumor 156681-154-R-J1-PDC patient-derived melanoma cell line growth inhibition [TAK]
Settings: spheroids with HUVEC and MSC; for IC50: curve of first compound; for viability, T/C: stronger effect = lower value
Method in brief: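 Spheroids of 60% malignant cells, 25% HUVEC and 15% hMSC were exposed to targeted agents combined with TAK-243 or ipatasertib. Concentrations started at or near clinical Cmax (10 microM if unknown) and descended in half-log steps.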
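Note: spheroids exposed to compounds for 7 days before the endpoint.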

## CC(=O)Nc1cccc(-n2c(=O)n(C3CC3)c(=O)c3c(Nc4ccc(I)cc4F)n(C)c(=O)c(C)c32)c1 + CC(C)NCC(C(=O)N1CCN(c2ncnc3c2C(C)CC3O)CC1)c1ccc(Cl)cc1
Second compound 0.3 µM
  IC50: 3.28 nM
Second compound 0.949 µM
  IC50: 3.04 nM
Second compound 3 µM
  IC50: 1.39 nM
Second compound 9.49 µM
  IC50: < 0.0949 nM
Second compound 30 µM
  IC50: < 0.0949 nM
Second compound 0.3 µM, first compound 94.9 pM
  viability, T/C: 92%
Second compound 0.3 µM, first compound 0.0003 µM
  viability, T/C: 105%
Second compound 0.3 µM, first compound 0.000949 µM
  viability, T/C: 95.2%
Second compound 0.3 µM, first compound 0.003 µM
  viability, T/C: 53.3%
Second compound 0.3 µM, first compound 0.00949 µM
  viability, T/C: 11%
Second compound 0.3 µM, first compound 0.03 µM
  viability, T/C: 7.15%
Second compound 0.949 µM, first compound 94.9 pM
  viability, T/C: 88.9%
Second compound 0.949 µM, first compound 0.0003 µM
  viability, T/C: 89.2%
Second compound 0.949 µM, first compound 0.000949 µM
  viability, T/C: 84.2%
Second compound 0.949 µM, first compound 0.003 µM
  viability, T/C: 50.8%
Second compound 0.949 µM, first compound 0.00949 µM
  viability, T/C: 8.92%
Second compound 0.949 µM, first compound 0.03 µM
  viability, T/C: 6.03%
Second compound 3 µM, first compound 94.9 pM
  viability, T/C: 72.3%
Second compound 3 µM, first compound 0.0003 µM
  viability, T/C: 69.3%
Second compound 3 µM, first compound 0.000949 µM
  viability, T/C: 63.6%
Second compound 3 µM, first compound 0.003 µM
  viability, T/C: 22.9%
Second compound 3 µM, first compound 0.00949 µM
  viability, T/C: 7.24%
Second compound 3 µM, first compound 0.03 µM
  viability, T/C: 2.71%
Second compound 9.49 µM, first compound 94.9 pM
  viability, T/C: 43.4%
Second compound 9.49 µM, first compound 0.0003 µM
  viability, T/C: 43.6%
Second compound 9.49 µM, first compound 0.000949 µM
  viability, T/C: 31.1%
Second compound 9.49 µM, first compound 0.003 µM
  viability, T/C: 13%
Second compound 9.49 µM, first compound 0.00949 µM
  viability, T/C: 3.14%
Second compound 9.49 µM, first compound 0.03 µM
  viability, T/C: 0.73%
Second compound 30 µM, first compound 94.9 pM
  viability, T/C: 17.9%
Second compound 30 µM, first compound 0.0003 µM
  viability, T/C: 18.9%
Second compound 30 µM, first compound 0.000949 µM
  viability, T/C: 11.8%
Second compound 30 µM, first compound 0.003 µM
  viability, T/C: 4.9%
Second compound 30 µM, first compound 0.00949 µM
  viability, T/C: 1.63%
Second compound 30 µM, first compound 0.03 µM
  viability, T/C: 0.28%

## CC(C)(C)c1nc(-c2cccc(NS(=O)(=O)c3c(F)cccc3F)c2F)c(-c2ccnc(N)n2)s1 + CC(C)NCC(C(=O)N1CCN(c2ncnc3c2C(C)CC3O)CC1)c1ccc(Cl)cc1
Second compound 0.3 µM
  IC50: 239 nM
Second compound 0.949 µM
  IC50: 214 nM
Second compound 3 µM
  IC50: 148 nM
Second compound 9.49 µM
  IC50: < 31.6 nM
Second compound 30 µM
  IC50: < 31.6 nM
Second compound 0.3 µM, first compound 0.0316 µM
  viability, T/C: 103%
Second compound 0.3 µM, first compound 0.1 µM
  viability, T/C: 90.7%
Second compound 0.3 µM, first compound 0.316 µM
  viability, T/C: 36.9%
Second compound 0.3 µM, first compound 1 µM
  viability, T/C: 14.5%
Second compound 0.3 µM, first compound 3.16 µM
  viability, T/C: 11.9%
Second compound 0.3 µM, first compound 10 µM
  viability, T/C: 12.7%
Second compound 0.949 µM, first compound 0.0316 µM
  viability, T/C: 90.1%
Second compound 0.949 µM, first compound 0.1 µM
  viability, T/C: 79%
Second compound 0.949 µM, first compound 0.316 µM
  viability, T/C: 35.1%
Second compound 0.949 µM, first compound 1 µM
  viability, T/C: 12.7%
Second compound 0.949 µM, first compound 3.16 µM
  viability, T/C: 8.47%
Second compound 0.949 µM, first compound 10 µM
  viability, T/C: 8.82%
Second compound 3 µM, first compound 0.0316 µM
  viability, T/C: 67.6%
Second compound 3 µM, first compound 0.1 µM
  viability, T/C: 62.4%
Second compound 3 µM, first compound 0.316 µM
  viability, T/C: 26.1%
Second compound 3 µM, first compound 1 µM
  viability, T/C: 7.91%
Second compound 3 µM, first compound 3.16 µM
  viability, T/C: 5.22%
Second compound 3 µM, first compound 10 µM
  viability, T/C: 6.48%
Second compound 9.49 µM, first compound 0.0316 µM
  viability, T/C: 40.1%
Second compound 9.49 µM, first compound 0.1 µM
  viability, T/C: 31.7%
Second compound 9.49 µM, first compound 0.316 µM
  viability, T/C: 17.3%
Second compound 9.49 µM, first compound 1 µM
  viability, T/C: 6.56%
Second compound 9.49 µM, first compound 3.16 µM
  viability, T/C: 3.41%
Second compound 9.49 µM, first compound 10 µM
  viability, T/C: 3.45%
Second compound 30 µM, first compound 0.0316 µM
  viability, T/C: 15.6%
Second compound 30 µM, first compound 0.1 µM
  viability, T/C: 13%
Second compound 30 µM, first compound 0.316 µM
  viability, T/C: 7.77%
Second compound 30 µM, first compound 1 µM
  viability, T/C: 2.12%
Second compound 30 µM, first compound 3.16 µM
  viability, T/C: 1.1%
Second compound 30 µM, first compound 10 µM
  viability, T/C: 1.52%
